pEC50, pIC50: −log10 of the molar value. Activity calls are given as the source filed them. The rule behind the calls is not given here.
How the values were obtained:
SARS-CoV-2 [1] = experiment: Antiviral activity against SARS CoV-2 replicon-based SRIP; assay type: functional, organism-based; settings: Severe acute respiratory syndrome coronavirus 2
[2] = target: Replicase polyprotein 1ab (Severe acute respiratory syndrome coronavirus 2) (UniProt P0DTD1); experiment: Inhibition of SARS CoV-2 RdRp at 10 uM incubated for 2 hrs by fluorescence based assay relative to control
SARS-CoV [3] = assay type: functional, organism-based; settings: Severe acute respiratory syndrome-related coronavirus; Calu-3; dose <= 1.0 µM, time 96.0 hrs
[4] = Cytotoxicity against human Calu-3 cells assessed as cell viability incubated for 96 hrs by MTT assay; assay type: toxicity, cell-based
SARS-CoV-2 [5] = assay type: functional, organism-based
SARS-CoV-2 [6] = assay type: functional, organism-based; settings: Severe acute respiratory syndrome coronavirus 2; Calu-3; dose <= 1.0 µM, time 96.0 hrs
[7] = target: Replicase polyprotein 1ab (Severe acute respiratory syndrome coronavirus 2, UniProt P0DTD1); experiment: (§1) Inhibition of SARS CoV-2 RdRp incubated for 2 hrs by fluorescence based assay
[8] = target: Replicase polyprotein 1ab (Severe acute respiratory syndrome coronavirus 2) (UniProt P0DTD1); experiment: as §1
SARS-CoV [9] = assay type: functional, organism-based; settings: Severe acute respiratory syndrome-related coronavirus
SARS-CoV [10] = assay type: functional, organism-based; settings: Severe acute respiratory syndrome-related coronavirus; Calu-3; dose <= 1.0 µM, time 120.0 hrs
SARS-CoV-2 [11] = assay type: functional, organism-based; settings: Severe acute respiratory syndrome coronavirus 2; Calu-3; dose <= 1.0 µM, time 120.0 hrs
in vitro = settings: human, Calu-3 cells

CCC(CC)COC(=O)[C@H](C)N[P@](=O)(OC[C@H]1O[C@@](C#N)(c2ccc3c(N)ncnn23)[C@H](O)[C@@H]1O)Oc1ccccc1 [REMDESIVIR]
pEC50 (SARS-CoV-2 [1]): 6.77

CCOC(=O)CNC(=S)Nc1ccc2n(c1=O)C[C@H]1C[C@@H]2CN(C)C1
inhibition [2]: < 38%

C=CCNC(=S)N1C[C@@H]2C[C@H](C1)c1ccc([N+](=O)[O-])c(=O)n1C2
inhibition [2]: < 38%

COC(=O)CN1C[C@@H]2C[C@H](C1)c1ccc(NCc3cn(C)c(=O)n(C)c3=O)c(=O)n1C2
inhibition [2]: < 38%

Cn1cc(CNc2ccc3n(c2=O)C[C@H]2C[C@@H]3CN3CCCC[C@@H]23)c(=O)n(C)c1=O
inhibition [2]: < 38%

CC(C)C[C@H](NC(=O)OCc1ccccc1)C(=O)N[C@@H](C[C@@H]1CCNC1=O)C(O)S(=O)(=O)O (some centres undefined)
pEC50 (SARS-CoV-2 [1]): 6.77

Cn1cc(CNc2ccc3n(c2=O)C[C@H]2C[C@@H]3CN(Cc3ccccc3)C2)c(=O)n(C)c1=O
Activity (SARS-CoV [3]): Active | CC50 at 96 h [4]: > 100000 nM | pEC50 (SARS-CoV-2 [5]; Severe acute respiratory syndrome coronavirus 2, Calu-3, 96 h): 5.83 | Activity (SARS-CoV-2 [5]; Severe acute respiratory syndrome coronavirus 2, Calu-3, dose 0.1-10 µM, time 96.0 hrs): Dose-dependent-effect | Activity (SARS-CoV-2 [6]): Active | pIC50 [7]: 5.11 | inhibition [8]: Dose-dependent-effect | pEC50 (SARS-CoV [9]; Calu-3, 96 h): 6.92 | Activity (SARS-CoV [9]; Calu-3, dose 0.1-10 µM, time 96.0 hrs): Dose-dependent-effect | Activity (SARS-CoV [10]): Active | inhibition [2]: 64% | Activity (SARS-CoV-2 [11]): Active | selectivity ratio (in vitro): > 68

CC(C)NC(=S)Nc1ccc2n(c1=O)C[C@H]1C[C@@H]2CN(C)C1
inhibition [2]: < 38%

CN1C[C@@H]2C[C@H](C1)c1ccc(NCc3ccccc3O)c(=O)n1C2
inhibition [2]: < 38%

O=c1ccc(Cl)c2n1C[C@H]1C[C@@H]2CN(C(=S)Nc2ccccc2)C1
inhibition [2]: < 38%

O=c1cccc2n1C[C@H]1C[C@@H]2CN(C(=S)Nc2ccccc2)C1
inhibition [2]: < 38%

CN1C[C@@H]2C[C@H](C1)c1ccc(NC/C=C/c3ccccc3)c(=O)n1C2
inhibition [2]: < 38%
